Measured values as given in publication PMC10671313, “First Gallium and Indium Crystal Structures of Curcuminoid Homoleptic Complexes: All-Different Ligand Stereochemistry and Cytotoxic Potential” (International Journal of Molecular Sciences, 2023).
“Also recorded” adds a separate entry of the source. Where two headings read alike, the source gives them in different places.

How the values were obtained:
Type in all cases: cell-based
[1] = test system: PC-3 (human prostate adenocarcinoma); assay: SRB cytotoxicity assay, PC-3 cells
Experimental: (§1) The cytotoxicity of all compounds was assessed against several cancer cell lines, namely U251 (human glioblastoma), PC-3 (human prostate adenocarcinoma), K562 (human chronic myelogenous leukemia), HCT-15 (human colon adenocarcinoma), MCF-7 (human mammary adenocarcinoma), SKLU-1 (human lung adenocarcinoma), and COS-7 (non-tumoral monkey kidney). These cell lines were obtained from the U.S. National Cancer Institute (NCI) (Montgomery County, MD, USA). The cells were cultured in RPMI-1640 medium supplemented with 10% fetal bovine serum, 2 mM L-glutamine, 10,000 units/mL penicillin G sodium, 10,000 μg/mL streptomycin sulfate, 25 μg/mL amphotericin B (Invitrogen/Gibco^TM, Thermo Fisher Scientific, Waltham, MA, USA), and 1% non-essential amino acids (Gibco). They were maintained at a temperature of 37 °C in a humidified atmosphere containing 5% CO2. The experiment’s cell viability exceeded 95%, as determined using trypan blue staining. To evaluate the cytotoxicity on human tumor cells, the protein-binding dye sulforhodamine B (SRB) was employed in a microculture assay, following the protocols established by the NCI [52, 53, 54]. The results were reported as IC50 values, representing the inhibitory concentration required for 50% inhibition. The IC50 values were determined using the Monks protocol, which involved plotting dose-response curves for each compound and estimating the concentration (IC50) at which a 50% inhibition was observed through non-linear regression analysis.

[2] = test system: SKLU-1 (human lung adenocarcinoma); assay: SRB cytotoxicity assay, SKLU-1 cells
Experimental: as §1

[3] = test system: K562 (human chronic myelogenous leukemia); assay: SRB cytotoxicity assay, K562 cells
Experimental: as §1

[4] = test system: COS-7 (non-tumoral monkey kidney); assay: SRB cytotoxicity assay, COS-7 non-tumoral cells
Experimental: as §1

[5] = test system: HCT-15 (human colon adenocarcinoma); assay: SRB cytotoxicity assay, HCT-15 cells
Experimental: as §1

[6] = test system: MCF-7 (human mammary adenocarcinoma); assay: SRB cytotoxicity assay, MCF-7 cells
Experimental: as §1

[7] = test system: U251 (human glioblastoma); assay: SRB cytotoxicity assay, U251 cells
Experimental: as §1

[8] = PC-3 cell line, SRB assay, read-out: IC50 PC-3
[9] = SKLU-1 cell line, SRB assay, read-out: IC50 SKLU-1
[10] = K562 cell line, SRB assay, read-out: IC50 K562
[11] = non-cancerous COS-7 cells, SRB assay, read-out: IC50 COS-7
[12] = HCT15 cell line, SRB assay, read-out: IC50 HCT15
[13] = MCF7 cell line, SRB assay, read-out: IC50 MCF7
[14] = U251 cell line, SRB assay, read-out: IC50 U251

Molecule	IC50 [1, 8]	IC50 [2, 9]	IC50 [3, 10]	IC50 [4, 11]	IC50 [5, 12]	IC50 [6, 13]	IC50 [7, 14]	also measured
Curcumin [reference compound]	22.5 ± 1.9 µM	12.9 ± 0.7 µM	16.4 ± 0.04 µM	21.8 ± 2.1 µM	21.3 ± 0.9 µM	18.4 ± 0.9 µM	20.5 ± 1.7 µM	–
N.N.[Cl][Pt][Cl] [Cisplatin, reference compound]	–	–	–	–	10 ± 0.9 µM	–	–	–
Dimethoxycurcumin gallium [(DiMeOC)2-Ga]	10.5 ± 0.3 µM	–	2 ± 0.2 µM	23.2 ± 1.9 µM	–	15.5 ± 0.4 µM	5.3 ± 0.1 µM	Selectivity: IC50 in COS-7 compared to PC-3 ([1]; COS-7 vs PC-3, times less cytotoxic): 2 times; Selectivity: IC50 in COS-7 compared to K562 ([3]; COS-7 vs K562, times less cytotoxic): 11 times; Toxicity relative to cisplatin ([4]; lower toxicity than cisplatin (non-cancerous COS-7)): three times lesser toxicity than cisplatin; also recorded: up to three times lower toxicity than cisplatin; Selectivity: IC50 in COS-7 compared to U251 ([7]; COS-7 vs U251, times less cytotoxic): 4 times
COc1ccc(/C=C/C(=O)/C=C(O)/C=C/c2ccc(OC)c(OC)c2)cc1OC [DiMeOC, Dimethoxycurcumin]	–	–	–	–	–	–	–	IC50 ([1]; Homo sapiens, PC-3, read-out: IC50 PC-3): 5.9 ± 0.6 µM; IC50 ([2]; Homo sapiens, SK-LU-1, read-out: IC50 SKLU-1): 7.2 ± 0.4 µM; IC50 ([3]; Homo sapiens, K562, read-out: IC50 K562): 6.5 ± 1.4 µM; IC50 ([4]; Primates, COS-7, read-out: IC50 COS-7): 2.02 ± 0.07 µM; IC50 ([5]; Homo sapiens, HCT-15, read-out: IC50 HCT15): 6.6 ± 0.3 µM; IC50 ([6]; Homo sapiens, MCF7, read-out: IC50 MCF7): 6.9 ± 1 µM; IC50 ([7]; Homo sapiens, U-251, read-out: IC50 U251): 2.02 ± 0.07 µM
Dimethoxycurcumin indium [(DiMeOC)3-In]	7.6 ± 0.05 µM	6.2 ± 0.4 µM	–	–	7.9 ± 0.2 µM	9.7 ± 0.4 µM	6.3 ± 0.6 µM	–
